Data as given in patent US20130225427A1, “METHOD FOR PREDICTION OF RESPONSE TO IMMUNE MEDIATED DISEASE THERAPEUTICS” (SANFORD-BURNHAM MEDICAL RESEARCH INSTITUTE, priority 2010, published 2013).

Tests used:
Type in all cases: in vivo, human
APC = assay: Taqman gene expression in APC from PBMC of treated RA clinical responders; conditions: compared to initiation of the treatment
Source text: (§1) The aim of this study is to identify clusters of immune pathways characteristic of responsiveness that are specific to treatment. […] We show as summary a color coded table. We clustered individual immune functions according to cut off values identified in preliminary studies (25% change compared with baseline at active disease). The Table 1 depicts the differences for patients who are all responders and therefore otherwise clinically indistinguishable ([…]).
(§2) PBMCs from each patient were incubated for 48 hours with plate bound anti-CD3/CD28. Non-adherent cells were collected to enrich T cells by pan T-cell MACS. T cells were FACS sorted on CD4+CD127+ (TE) and CD4+CD25+CD127− (nTreg), and CD4+CD25+PD1+CD127− (PD1+ Treg). Aliquots of all sorted cells were collected for TaqMan. The remainder of the APCs and TE were cultured with isolated Treg. CFSE was added to the TE cells and cultured for a total of 4 days with anti-CD3/CD28.

Te Cells = assay: Taqman gene expression in sorted CD4+CD127+ effector T cells (TE) of treated RA clinical responders; conditions: compared to initiation of the treatment
Source text: as §1, §2

nTreg = assay: Taqman gene expression in sorted CD4+CD25+CD127− nTreg of treated RA clinical responders; conditions: compared to initiation of the treatment
Source text: as §1, §2

PD1 + Treg = assay: Taqman gene expression in sorted CD4+CD25+PD1+CD127− PD1+ Treg of treated RA clinical responders; conditions: compared to initiation of the treatment
Method: The aim of this study is to identify clusters of immune pathways characteristic of responsiveness that are specific to treatment. […] We clustered individual immune functions according to cut off values identified in preliminary studies (25% change compared with baseline at active disease).
as §2

Treg = assay: Suppression activity of Treg on CFSE-labelled TE proliferation; conditions: when clinical response is seen (FIG. 3)
Method: as §2

## CN(Cc1cnc2nc(N)nc(N)c2n1)c1ccc(C(=O)N[C@@H](CCC(=O)O)C(=O)O)cc1 [MTX, methotrexate]
APC
  B7-H1 up or down regulated: up regulated (cut off values identified in preliminary studies (25% change compared with baseline at active disease))
  B7-H2 up or down regulated: up regulated (cut off values identified in preliminary studies (25% change compared with baseline at active disease))
  B7-H4 up or down regulated: up regulated (cut off values identified in preliminary studies (25% change compared with baseline at active disease))
  FAS-L up or down regulated: up regulated (cut off values identified in preliminary studies (25% change compared with baseline at active disease))
  IL-10 up or down regulated: up regulated (cut off values identified in preliminary studies (25% change compared with baseline at active disease))
  INFγ up or down regulated: up regulated (cut off values identified in preliminary studies (25% change compared with baseline at active disease))
  TGFβ up or down regulated: up regulated (cut off values identified in preliminary studies (25% change compared with baseline at active disease))
  percent change in expression of B7-H1: +106.4%
  percent change in expression of B7-H2: +98.4%
  percent change in expression of B7-H4: +118.6%
  percent change in expression of FAS-L: +83.1%
  percent change in expression of IL-10: +28.6%
  percent change in expression of INFγ: +219.9%
  percent change in expression of TGFβ: +31.1%
Te Cells
  IL-10 up or down regulated: no change (cut off values identified in preliminary studies (25% change compared with baseline at active disease))
  IL-17A up or down regulated: no change (cut off values identified in preliminary studies (25% change compared with baseline at active disease))
  TGFβ up or down regulated: up regulated (cut off values identified in preliminary studies (25% change compared with baseline at active disease))
  percent change in expression of FAS-L: 20.5%
  percent change in expression of GATA-3: −21.6%
  percent change in expression of ICOS: −7.2%
  percent change in expression of IL-10: +15.2%
  percent change in expression of IL-17A: +0.3%
  percent change in expression of INFγ: +1.7%
  percent change in expression of PD-1: +5.6%
  percent change in expression of TGFβ: +150.8%
  percent change in expression of TNFα: 2.3%
  percent change in expression of Tbet: −17.1%
nTreg
  CTLA4 up or down regulated: up regulated (cut off values identified in preliminary studies (25% change compared with baseline at active disease))
  FoxP3 up or down regulated: up regulated (cut off values identified in preliminary studies (25% change compared with baseline at active disease))
  Granzyme B up or down regulated: up regulated (cut off values identified in preliminary studies (25% change compared with baseline at active disease))
  INFγ up or down regulated: up regulated (cut off values identified in preliminary studies (25% change compared with baseline at active disease))
  PD1 up or down regulated: up regulated (cut off values identified in preliminary studies (25% change compared with baseline at active disease))
  TGFβ up or down regulated: up regulated (cut off values identified in preliminary studies (25% change compared with baseline at active disease))
  percent change in expression of CTLA4: +684.0%
  percent change in expression of FoxP3: 439.0%
  percent change in expression of Granzyme B: +393.7%
  percent change in expression of INFγ: +99.6%
  percent change in expression of PD1: +474.2%
  percent change in expression of TGFβ: +69.3%
PD1 + Treg
  CTLA4 up or down regulated: up regulated (cut off values identified in preliminary studies (25% change compared with baseline at active disease))
  FoxP3 up or down regulated: up regulated (cut off values identified in preliminary studies (25% change compared with baseline at active disease))
  Granzyme B up or down regulated: up regulated (cut off values identified in preliminary studies (25% change compared with baseline at active disease))
  IL-10 up or down regulated: up regulated (cut off values identified in preliminary studies (25% change compared with baseline at active disease))
  INFγ up or down regulated: up regulated (cut off values identified in preliminary studies (25% change compared with baseline at active disease))
  PD1 up or down regulated: up regulated (cut off values identified in preliminary studies (25% change compared with baseline at active disease))
  Perforin up or down regulated: up regulated (cut off values identified in preliminary studies (25% change compared with baseline at active disease))
  TGFβ up or down regulated: up regulated (cut off values identified in preliminary studies (25% change compared with baseline at active disease))
  percent change in expression of FoxP3: +124.1%
  percent change in expression of Granzyme B: +213.8%
  percent change in expression of IL-10: 168.8%
  percent change in expression of INFγ: +355.0%
  percent change in expression of PD1: 290.3%
  percent change in expression of Perforin: +288.7%
  percent change in expression of TGFβ: +254.4%
Treg
  suppressive capability of Treg to suppress effector proliferation: enhanced
